Several values for one entry are separate records, joined by “and”; a condition that tells them apart may be missing. Equal values may be shown once. Where a name gives a salt, the structure may show the parent alone. Read-outs that look alike come from different tables or passages of the source.
Tests used:
[1] = system: MDA-MB-435; assay: In vitro tumor cell proliferation, MDA-MB-435; assay type: cell-based; details: values given with an undefined *, read-out: In vitro Tumor Cell Proliferation (IC50, μM) Breast MDA-MB-435
Protocol: (§1) The proliferation of tumor cells was measured using a sulforhodamine B assay as described in Skehan, P., et al., J. Natl. Cancer Inst. […] Tumor cells were harvested with trypsin-EDTA, cells that excluded trypan blue were counted, added to 96-well plates and incubated overnight at 37° C. Drug was added to the wells following dilution in culture medium. Three days later, the medium was removed and replenished with medium containing fresh drug and incubated an additional 4 days. The cells were then fixed with 0.1 ml 10% trichloroacetic acid for 60 min at 4° C. The plates were rinsed five times with tap water, air-dried and stained for 30 min with 0.4% sulforhodamine B in 1% acetic acid and air-dried.
(§2) Alternatively, the CyQUANT cell proliferation assay was used to quantitate cell proliferation.
(§3) Alternatively, the CyQUANT cell proliferation assay was used to quantify tumor cell proliferation. Tumor cells were harvested with trypsin-EDTA, cells that excluded trypan blue were counted, added to 96-well plates and incubated overnight at 37° C. Drug was added to the wells following dilution in culture medium. Three days later the medium was removed and the plates frozen at −80° C. for at least 30 minutes.

[2] = system: DU145; assay: In vitro tumor cell proliferation, DU145; assay type: cell-based, human; details: many values given with an undefined *, read-out: In vitro Tumor Cell Proliferation (IC50, μM) Prostate DU145
Protocol: as §1, §2, §3

[3] = system: PC-3; assay: In vitro tumor cell proliferation, PC-3; assay type: cell-based, human; details: many values given with an undefined *, read-out: In vitro Tumor Cell Proliferation (IC50, μM) Prostate PC-3
Protocol: as §1, §2, §3

[4] = system: DMS-114; assay: In vitro tumor cell proliferation, DMS-114; assay type: cell-based, human; details: many values given with an undefined *, read-out: In vitro Tumor Cell Proliferation (IC50, μM) Lung DMS-114
Protocol: DMS-1 14: human small cell lung carcinoma;
as §1, §2, §3

[5] = system: HT-29; assay: In vitro tumor cell proliferation, HT-29; assay type: cell-based, human; details: many values given with an undefined *, read-out: In vitro Tumor Cell Proliferation (IC50, μM) Colon HT-29
Protocol: as §1, §2, §3
HT-29 is a human colon adenocarcinoma, moderately well-differentiated grade II (HTB 38);

[6] = system: A549; assay: In vitro tumor cell proliferation, A549; assay type: cell-based, human; details: many values given with an undefined *, read-out: In vitro Tumor Cell Proliferation (IC50, μM) Lung A549
Protocol: as §1, §2, §3

[7] = system: Colo-205; assay: In vitro tumor cell proliferation, Colo-205; assay type: cell-based; details: values given with an undefined *, read-out: In vitro Tumor Cell Proliferation (IC50, μM) Colon Colo-205
Protocol: as §1, §2, §3

[8] = system: MDA-MB-231; assay: In vitro tumor cell proliferation, MDA-MB-231; assay type: cell-based, human; details: sulforhodamine B or CyQUANT assay, many values given with an undefined *, read-out: In vitro Tumor Cell Proliferation (IC50, μM) Breast MDA-MB-231
Protocol: as §1, §2, §3
MDA-MB-23 1 is a human breast adenocarcinoma, hormone-independent (HTB 26);

[9] = target: T1, cdk4/cyclin D1 (Homo sapiens, UniProt P11802); assay: Cyclin-dependent Kinase 4 Assay (cdk4/cyclin D1, GST-Rb substrate); assay type: biochemical; details: cdk4/cyclin D1 insect cell lysate, 10 μM ATP, 30 min at 37° C., several values = separate determinations, read-out: CDK4 Inhibition IC50
T1 construct: made in house; host or cells: Sf9 insect cells (Bac-to-Bac baculovirus, pFastBac)
Protocol: The IC50 values for cdk4 inhibition were by the following method:
The transformed bacteria were grown overnight to saturation, then diluted in YT broth and incubated at 37° C. for 2 h. The protein was induced by incubation with 0.1 mM isopropylthioglycoside for 3 h. Following sedimentation by centrifugation, the cells were lysed by sonication in STE buffer ([…] NaCl, 10 mM Tris, pH 8.0, 1 mM EDTA) containing 10% sarkosyl. Particulate matter was removed by centrifugation and the lysate was incubated with glutathione-Sepharose at 4° C. The beads were washed with kinase buffer and then quantitation of Coomassie blue-stained proteins separated by SDS-PAGE was performed using a protein standard of known concentration.
The cDNA for human cyclin D1 was cloned by RT PCR using […] from MCF-7 cells. […] Bacmid DNA was used to transfect Sf9 insect cells to produce recombinant virus. Following plaque purification of the virus, the viral preparations were amplified until high titer stocks were acheived.
Lysates were prepared by lysis of Sf9 cells coinfected with cdk4 and cyclin D1 in 50 mM HEPES, pH 7.5, 10 mM MgCl2, 1 mM DTT, 0.1 mM phenylmethylsulfonyl fluoride, 5 μg/ml aprotinin, and 5 μg/ml leupeptin using a PARR bomb under 500 p.s.i nitrogen pressure for 5 min at 4° C. Insoluble material was sedimented at 10,000×g for 20 min at 4° C. Glycerol was added to the supernatant to 10% and stored at −80° C. in aliquots.
Pre-wet Millipore Multiscreen 96-well filter plates (0.65 μm Durapore filters) with 200 μl kinase buffer (50 mM HEPES, pH 7.5, 10 mM MgCl2, 1 mM EGTA). GST-Rb (0.5 μg) bound to glutathione-Sepharose beads is added in 50 μl per well and the solution removed by application of vacuum. […] Add 0.1 μg cdk4/cyclin D1 (insect cell lysate) to initiate assay. Incubate 30 min at 37° C. Terminate reaction by filtration on Millipore Vacuum Manifold. Wash four times with TNEN (20 mM Tris, pH 8.0, 100 mM Na Cl, 1 mM EDTA, 0.5% nonidet P-40). After drying the plates at room temperature, the filter plates were placed in adapter plates (Packard) and 40 μl of Microscint-O® (Packard) was added to each well. Top Seal A film was used to cover the plates before counting in a Top Count Scintillation Counter.

[10] = target: T2, cdk2/cyclin E (Homo sapiens, UniProt P24941); assay: Cyclin-Dependent Kinase 2 Assay (cdk2/cyclin E, GST-Rb substrate); assay type: biochemical; details: recombinant cdk2/cyclin E, 10 μM ATP, 30 min at 30° C., several values in a cell = separate determinations, read-out: CDK-2 Inhibition IC50
T2 construct: made in house; host or cells: insect cells (baculovirus co-infection)
Protocol: Substrate: GST-Rb as described above for cdk4/cyclin D1
Assay conditions for cdk2/cyclin E were identical to those for cdk4/cyclin D1 including the substrate. The concentration of recombinant cdk2/cyclin E in the assay was 0.1 μg per 100 μl assay. Incubation was for 30 min at 30° C.

[11] = Homo sapiens, MDA-MB-231, MDA-MB-231

T1 sequence (P11802 whole entry): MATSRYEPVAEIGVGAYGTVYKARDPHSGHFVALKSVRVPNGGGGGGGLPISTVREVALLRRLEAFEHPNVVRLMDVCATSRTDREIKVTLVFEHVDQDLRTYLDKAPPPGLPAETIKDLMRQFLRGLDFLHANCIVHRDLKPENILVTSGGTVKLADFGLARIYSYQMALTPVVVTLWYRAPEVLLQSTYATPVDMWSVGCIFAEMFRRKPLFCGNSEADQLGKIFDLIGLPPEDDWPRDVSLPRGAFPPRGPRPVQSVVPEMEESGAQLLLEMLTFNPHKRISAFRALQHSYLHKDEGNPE
T1 sequence (P24385 whole entry partner): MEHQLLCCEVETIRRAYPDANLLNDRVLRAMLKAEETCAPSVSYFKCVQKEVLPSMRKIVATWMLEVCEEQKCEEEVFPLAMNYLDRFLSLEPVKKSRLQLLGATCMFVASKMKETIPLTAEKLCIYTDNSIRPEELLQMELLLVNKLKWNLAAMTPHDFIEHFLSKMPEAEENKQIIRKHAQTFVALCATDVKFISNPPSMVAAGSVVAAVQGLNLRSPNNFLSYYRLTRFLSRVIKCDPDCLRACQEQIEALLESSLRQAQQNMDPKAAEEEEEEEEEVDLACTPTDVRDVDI

| IC50 ([1]; MDA-MB-435, trihydrochloride) | IC50 ([2]; DU145, trihydrochloride) | IC50 ([3]; PC-3, trihydrochloride) | IC50 ([4]; DMS-114, trihydrochloride) | IC50 ([5]; HT-29, trihydrochloride) | IC50 ([6]; A549, trihydrochloride) | IC50 ([7]; Colo-205, trihydrochloride) | IC50 ([8]; MDA-MB-231, trihydrochloride) | IC50 [10] | IC50 [9] | IC50 ([1]; MDA-MB-435) | IC50 ([2]; DU145) | IC50 ([7]; Colo-205) | IC50 ([8]; MDA-MB-231) | Compound | also measured |
| --- | --- | --- | --- | --- | --- | --- | --- | --- | --- | --- | --- | --- | --- | --- | --- |
| 0.5 µM and 0.49 µM | 0.31 µM and 0.29 µM | 0.36 µM and 0.45 µM | 0.67 µM and 0.36 µM | 0.4 µM and 0.34 µM | 0.3 µM | 0.31 µM and 0.25 µM | 0.41 µM and 0.38 µM |  |  |  |  |  |  | 2-[Trans-(4-aminocyclohexyl)amino]-6-[4-[1-(2,5-difluorobenzyl)]piperidinylamino-9-cyclopentylpurine trihydrochloride [Example 147-f] | IC50 ([9]; trihydrochloride): 1100 nM and 2100 nM |
|  |  |  |  |  |  |  |  | 27100 nM | 4600 nM and 10000 nM |  |  |  |  | NC1CCC(Nc2nc(NC(c3ccc(Cl)cc3)C3CC3)c3ncn(C4CCCC4)c3n2)CC1 (racemic) [Example 24, (+/−)-2-[Trans-(4-aminocyclohexyl)amino]-6-[(α-cyclopropyl-4-chlorobenzyl)amino]-9-cyclopentylpurine dihydrochloride] |  |
|  |  |  |  |  |  |  |  | 19400 nM | 46000 nM and > 100000 nM |  |  |  |  | COc1cccc(OC)c1CNc1nc(N[C@H]2CC[C@H](N)CC2)nc2c1ncn2C1CCCC1 [Example 4, 2-[Trans-(4-aminocyclohexyl)amino]-6-[(2,6-dimethoxybenzyl)amino]-1-9-cyclopentylpurine dihydrochloride] |  |
|  |  |  |  |  |  |  |  | 497 nM |  |  |  |  |  | N[C@H]1CC[C@H](Nc2nc(NNc3c(Cl)cccc3Cl)c3ncn(C4CCCC4)c3n2)CC1 [Example 20, 2-[Trans-(4-aminocyclohexyl)amino]-6-[2,6-dichlorophenylhydrazino]-9-cyclopentylpurine dihydrochloride] | IC50 ([1]; Homo sapiens, MDA-MB-435, MDA-MB-435): 11 µM; IC50 ([2]; Homo sapiens, DU-145, DU145): 6.5 µM; IC50 ([3]; Homo sapiens, PC-3, PC-3): 7.9 µM; IC50 ([4]; Homo sapiens, DMS-114, DMS-114): 7.5 µM; IC50 ([5]; Homo sapiens, HT-29, HT-29): 7.6 µM; IC50 ([6]; A549, dihydrochloride): 4.8 µM; IC50 ([6]; Homo sapiens, A549, A549): 5.6 µM; IC50 [8, 11]: 4.8 µM |
|  |  |  |  |  |  |  |  |  |  | 0.23 µM and 0.35 µM | 0.28 µM and 0.27 µM | 0.28 µM and 0.17 µM | 0.18 µM | COc1ccc(CN2CCC(Nc3nc(N[C@H]4CC[C@H](N)CC4)nc4c3ncn4C3CCCC3)CC2)cc1 [Example 39, 2-[Trans-(4-aminocyclohexyl)amino]-6-[4-(1-(4-methoxybenzyl))piperidinylamino]-9-cyclopentylpurine] | IC50 ([3]; PC-3): 0.28 µM and 0.36 µM; IC50 ([4]; DMS-114): 0.32 µM and 0.22 µM; IC50 ([5]; HT-29): 0.32 µM and 0.22 µM; IC50 ([6]; A549): 0.17 µM |
|  |  |  |  |  |  |  |  |  | 750 nM and 1400 nM | 0.35 µM and 0.36 µM | 0.29 µM and 0.23 µM | 0.25 µM and 0.21 µM | 0.29 µM and 0.32 µM | COc1cccc(CN2CCC(Nc3nc(N[C@H]4CC[C@H](N)CC4)nc4c3ncn4C3CCCC3)CC2)c1 [Example 41, 2-[Trans-(4-aminocyclohexyl)amino]-6-[4-(1-(3-methoxybenzyl))piperidinylamino]-9-cyclopentylpurine] | IC50 ([3]; PC-3): 0.27 µM and 0.42 µM; IC50 ([4]; DMS-114): 0.38 µM and 0.29 µM; IC50 ([5]; HT-29): 0.32 µM; IC50 ([6]; A549): 0.19 µM |
|  |  |  |  |  |  |  |  | 140 nM |  | 11 µM | 6.7 µM | 8.6 µM | 6.6 µM | COc1cc(CNc2nc(NC3CCC(N)CC3)nc3c2ncn3C2CCCC2)cc(OC)c1OC (stereo not shown) [Example 147-ae] | IC50 ([2]; Homo sapiens, DU-145, DU145): 12 µM; IC50 ([4]; Homo sapiens, DMS-114, DMS-114): 8.7 µM; IC50 ([5]; Homo sapiens, HT-29, HT-29): 10 µM; IC50 ([6]; Homo sapiens, A549, A549): 11 µM; IC50 ([7]; Homo sapiens, COLO 205, Colo-205): 11 µM; IC50 [8, 11]: 6.5 µM |
| 0.3 µM and 0.45 µM | 0.23 µM | 0.23 µM and 0.41 µM | 0.39 µM and 0.26 µM | 0.33 µM | 0.17 µM and 0.18 µM | 0.24 µM and 0.27 µM | 0.3 µM and 0.34 µM |  |  |  |  |  |  | Cc1cccc(CN2CCC(Nc3nc(N[C@H]4CC[C@H](N)CC4)nc4c3ncn4C3CCCC3)CC2)c1 [Example 147-i, 2-[Trans-(4-aminocyclohexyl)amino]-6-[4-[1-(3-methylbenzyl)]piperidinylamino]-9-cyclopentylpurine trihydrochloride] |  |
| 0.36 µM and 0.33 µM | 0.29 µM and 0.32 µM | 0.33 µM and 0.4 µM | 0.4 µM and 0.21 µM | 0.32 µM and 0.38 µM | 0.18 µM and 0.19 µM | 0.17 µM and 0.19 µM | 0.19 µM and 0.25 µM |  |  |  |  |  |  | COc1ccccc1CN1CCC(Nc2nc(N[C@H]3CC[C@H](N)CC3)nc3c2ncn3C2CCCC2)CC1 [Example 147-q, 2-[Trans-(4-aminocyclohexyl)amino]-6-[4-1-(2-methoxybenzyl)]piperidinylamino-9-cyclopentylpurine trihydrochloride] | IC50 ([9]; trihydrochloride): 690 nM and 1300 nM |
